Experimental data: PubChem BioAssay AID1259407 (Chemical Carcinogenesis Research Information System (CCRIS), 2018)
Active and inactive are the calls of the source. No rule for the calls is given here.

Test system: CCRIS mutagenicity, Ames/micronucleus/aberration tests
Assay: CCRIS mutagenicity studies

Measured: mutagenic call

CCN(CC)N=O
active: Test System: AMES SALMONELLA TYPHIMURIUM, Strain/Indicator: TA2410, Metabolic Activation: NONE, Method: HOST-MEDIATED active; positive | Test System: AMES SALMONELLA TYPHIMURIUM, Strain/Indicator: TA2678, Metabolic Activation: NONE, Method: HOST-MEDIATED active; positive | Test System: AMES SALMONELLA TYPHIMURIUM, Strain/Indicator: YG1024, Metabolic Activation: RAT LIVER S-9, AROCLOR, Method: PREINCUBATION active; positive | Test System: AMES SALMONELLA TYPHIMURIUM, Strain/Indicator: YG7104, Metabolic Activation: S-9, Method: PREINCUBATION active; positive | Test System: AMES SALMONELLA TYPHIMURIUM, Strain/Indicator: YG7104ER, Metabolic Activation: NONE, Method: STANDARD PLATE active; positive | Test System: AMES SALMONELLA TYPHIMURIUM, Strain/Indicator: YG7108-2A6-OR, Metabolic Activation: NONE, Method: PREINCUBATION active; positive | Test System: AMES SALMONELLA TYPHIMURIUM, Strain/Indicator: YG7108-2A6, Metabolic Activation: NONE, Method: PREINCUBATION active; positive | Test System: AMES SALMONELLA TYPHIMURIUM, Strain/Indicator: YG7108, Metabolic Activation: RAT LIVER S-9, PHENOBARBITAL AND 5,6-BENZOFLAVONE, Method: PREINCUBATION active; positive | Test System: AMES SALMONELLA TYPHIMURIUM, Strain/Indicator: YG7108, Metabolic Activation: S-9, Method: PREINCUBATION active; positive | Test System: AMES SALMONELLA TYPHIMURIUM, Strain/Indicator: YG7108ER, Metabolic Activation: NONE, Method: STANDARD PLATE active; positive | Test System: AMES SALMONELLA TYPHIMURIUM, Strain/Indicator: YG7112, Metabolic Activation: S-9, Method: PREINCUBATION active; positive | Test System: AMES SALMONELLA TYPHIMURIUM, Strain/Indicator: YG7113, Metabolic Activation: S-9, Method: PREINCUBATION active; positive | Test System: Ames Salmonella typhimurium, Strain/Indicator: TA98, Metabolic Activation: None, Method: Preincubation active; positive | Test System: Ames Salmonella typhimurium, Strain/Indicator: TA98, Metabolic Activation: Rat, Liver, S-9, Aroclor 1254 (4%), Method: Preincubation active; positive | Test System: Ames Salmonella typhimurium, Strain/Indicator: YG1024 (Acetyltransferase overproducing), Metabolic Activation: Rat, Liver, S-9, Aroclor 1254 (4%), Method: Preincubation active; positive | Test System: Ames Salmonella typhimurium, Strain/Indicator: YG7108pin3ERb5, Metabolic Activation: None, Method: Standard plate active; positive | Test System: CHINESE HAMSTER V-79, Strain/Indicator: V-79 (HPRT)/6-THIOGUANINE, Metabolic Activation: RAT, HEPATOCYTES active; positive | Test System: CHINESE HAMSTER V-79, Strain/Indicator: V-79 (HPRT)/6-THIOGUANINE, Metabolic Activation: RAT, LIVER, S-9, AROCLOR 1254 active; positive | Test System: CHINESE HAMSTER V-79, Strain/Indicator: V-79/8-AZAGUANINE, Metabolic Activation: RAT, LIVER, S-15, PHENOBARBITAL, Method: STANDARD PLATE active; positive | Test System: CHINESE HAMSTER V-79, Strain/Indicator: V-79/OUABAIN, Metabolic Activation: CELL-MEDIATED, Method: STANDARD PLATE active; positive | Test System: CHINESE HAMSTER V-79, Strain/Indicator: V-79/OUABAIN, Metabolic Activation: HAMSTER, HEPATOCYTES, Method: CELL-MEDIATED active; positive | Test System: E. COLI, Strain/Indicator: WP2 (HCR-), Metabolic Activation: RAT, LIVER, MICROSOMES, PHENOBARBITAL active; positive | Test System: E. COLI, Strain/Indicator: WP2 UVRA, Metabolic Activation: HAMSTER, LIVER, S-9, AROCLOR 1254, Method: PREINCUBATION active; positive | Test System: E. COLI, Strain/Indicator: WP2 UVRA, Metabolic Activation: HAMSTER, LIVER, S-9, Method: PREINCUBATION active; positive | Test System: MOUSE LYMPHOMA, Strain/Indicator: L5178Y (TK+/TK-), Metabolic Activation: RAT, LIVER, S-9, AROCLOR 1254, Method: SUSPENSION/PLATE active; positive | Test System: UDS RAT HEPATOCYTES, Strain/Indicator: THY INCORP, Metabolic Activation: NONE, Method: LIQUID SCINTILLATION COUNTING active; positive | Test System: UDS RODENT HEPATOCYTES, Strain/Indicator: THY INCORP (NON-S-PHASE), Method: AUTORADIOGRAPHY active; positive
inactive: Test System: AMES SALMONELLA TYPHIMURIUM, Strain/Indicator: YG1024, Metabolic Activation: NONE, Method: PREINCUBATION inactive; negative | Test System: AMES SALMONELLA TYPHIMURIUM, Strain/Indicator: YG7100, Metabolic Activation: S-9, Method: PREINCUBATION inactive; negative | Test System: AMES SALMONELLA TYPHIMURIUM, Strain/Indicator: YG7108-PCW, Metabolic Activation: NONE, Method: PREINCUBATION inactive; negative | Test System: AMES SALMONELLA TYPHIMURIUM, Strain/Indicator: YG7119, Metabolic Activation: S-9, Method: PREINCUBATION inactive; negative | Test System: Ames Salmonella typhimurium, Strain/Indicator: TA98DNP6 (Acetyltransferase deficient), Metabolic Activation: None, Method: Preincubation inactive; negative | Test System: Ames Salmonella typhimurium, Strain/Indicator: TA98DNP6 (Acetyltransferase deficient), Metabolic Activation: Rat, Liver, S-9, Aroclor 1254 (4%), Method: Preincubation inactive; negative | Test System: Ames Salmonella typhimurium, Strain/Indicator: TA98NR, Metabolic Activation: None, Method: Preincubation inactive; negative | Test System: Ames Salmonella typhimurium, Strain/Indicator: TA98NR, Metabolic Activation: Rat, Liver, S-9, Aroclor 1254 (4%), Method: Preincubation inactive; negative | Test System: Ames Salmonella typhimurium, Strain/Indicator: YG1021, Metabolic Activation: None, Method: Preincubation inactive; negative | Test System: Ames Salmonella typhimurium, Strain/Indicator: YG1021, Metabolic Activation: Rat, Liver, S-9, Aroclor 1254 (4%), Method: Preincubation inactive; negative | Test System: Ames Salmonella typhimurium, Strain/Indicator: YG1024 (Acetyltransferase overproducing), Metabolic Activation: None, Method: Preincubation inactive; negative | Test System: Ames Salmonella typhimurium, Strain/Indicator: YG1041 (Acetyltransferase and nitroreductase overproducing), Metabolic Activation: None, Method: Preincubation inactive; negative | Test System: Ames Salmonella typhimurium, Strain/Indicator: YG1041 (Acetyltransferase and nitroreductase overproducing), Metabolic Activation: Rat, Liver, S-9, Aroclor 1254 (4%), Method: Preincubation inactive; negative | Test System: CHINESE HAMSTER V-79, Strain/Indicator: V-79 (HPRT)/6-THIOGUANINE, Metabolic Activation: RAT, HEPATOMA, H4IIE CELLS inactive; negative | Test System: E. COLI, Strain/Indicator: WP2 UVRA, Metabolic Activation: HAMSTER, LIVER, S-9, AROCLOR 1254, Method: STANDARD PLATE inactive; negative | Test System: E. COLI, Strain/Indicator: WP2 UVRA, Metabolic Activation: HAMSTER, LIVER, S-9, Method: STANDARD PLATE inactive; negative | Test System: E. COLI, Strain/Indicator: WP2 UVRA, Metabolic Activation: MOUSE, LIVER, S-9, AROCLOR 1254, Method: STANDARD PLATE inactive; negative | Test System: E. COLI, Strain/Indicator: WP2 UVRA, Metabolic Activation: MOUSE, LIVER, S-9, Method: STANDARD PLATE inactive; negative | Test System: E. COLI, Strain/Indicator: WP2 UVRA, Metabolic Activation: NONE, Method: STANDARD PLATE inactive; negative | Test System: E. COLI, Strain/Indicator: WP2 UVRA, Metabolic Activation: RAT, LIVER, S-9, Method: PREINCUBATION inactive; negative | Test System: E. COLI, Strain/Indicator: WP2 UVRA, Metabolic Activation: RAT, LIVER, S-9, Method: STANDARD PLATE inactive; negative
